The results in this text go back to patent US10301317B2, “Inhibitors of ERK and methods of use” (Kura Oncology, Inc., priority 2013, dated 2019).

Test [1] relates to phospho-p90 RSK (RSK1 Thr359/Ser363) in A375 (Braf V600E) cells. The experiment in a line: Phospho-p90 RSK ELISA using A375 (Braf V600E) cells. In kind it is cell-based. The conditions noted are these: Homo sapiens, A-375, 2 hours compound treatment, read-out: Cellular Phospho-p90RSK IC50. Background: An ELISA detects its analyte on a solid surface through an enzyme-linked reagent.

The test system of test [2] is WM-266-4 cells. The experiment in a line: Tumor cell line proliferation assay (CellTiter Glo), WM-266-4. The test is classed as cell-based. The conditions noted are these: Homo sapiens, 96 hours, read-out: WM-266-4 (V599D) Cell Proliferation IC50. On the technique in general: In ATP-based viability assays light output follows the ATP content of the culture.
The target in test [3] is ERK2 enzyme (Homo sapiens (Human), UniProt P28482). The experiment in a line: Z'-LYTE kinase assay, inhibition of ERK activity. The settings on record: 100 μM ATP. The test is classed as biochemical. As for the experimental part:
The inhibition of ERK activity by the compounds disclosed herein was determined using the Z′-LYTE kinase assay kit (Life Technologies) with a Ser/Thr 3 peptide substrate (Life Technologies) according to manufacturers' instructions. […] The IC50 values for the compounds were determined with 3-fold serial dilutions in duplicate. […] The final DMSO concentration in the assay was 1%. Final reaction volume was 20 μL/well in 384-well plates. Kinase reactions were conducted or 1 hour followed by the assay development reaction (1 hour) in a 20 ul/well in a 384 well plate format.

The subject of test [4] is A375 cells. Kind of test: Tumor cell line proliferation assay (CellTiter Glo), A375. The conditions noted are these: Homo sapiens, A-375, 96 h, read-out: A375 (V599E) Cell Proliferation IC50. The test is classed as cell-based.
[5] abbreviates: In vitro Erk2, Z'-LYTE kinase assay.

Sequence of ERK2 enzyme (P28482 whole entry): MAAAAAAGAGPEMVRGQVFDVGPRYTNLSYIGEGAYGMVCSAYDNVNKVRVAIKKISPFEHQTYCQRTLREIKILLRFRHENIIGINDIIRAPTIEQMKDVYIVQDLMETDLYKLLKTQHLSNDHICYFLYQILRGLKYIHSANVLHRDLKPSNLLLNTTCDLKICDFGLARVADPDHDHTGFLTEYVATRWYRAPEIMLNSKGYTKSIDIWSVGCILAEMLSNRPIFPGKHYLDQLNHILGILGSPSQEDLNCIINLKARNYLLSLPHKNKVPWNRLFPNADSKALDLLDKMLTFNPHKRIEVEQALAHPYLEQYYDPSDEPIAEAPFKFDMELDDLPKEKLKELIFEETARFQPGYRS

Consider `Cc1cc(-c2n[nH]c3cc4c(cc23)CN([C@H](C)c2ccc(Cl)cc2)C(=O)N4)ccn1` [Example 16], for which the IC50 in test [1] was at most 250 nM; in test [2], 250 to 1000 nM; in test [3] (In vitro, ERK2 enzyme), 50 to 250 nM; in test [4], 250 to 1000 nM.
Turning to `O=C1Nc2cc3[nH]nc(CC4CCOCC4)c3cc2CN1[C@@H]1CN(CC(F)(F)F)C[C@H]1c1ccccc1` [Example 361], the results for the IC50 in test [1] and in test [3] (setting [5]) were at most 250 nM and 50 to 250 nM, respectively.
On the same counts, the results for `COc1ccc(-c2n[nH]c3cc4[nH]c(=O)c(C5CCCN(Cc6ccccc6)C5)cc4cc23)cn1` (centres unmarked) [Example 367] are 250 to 1000 nM and below 50 nM.
